How the values were obtained:
[1] = system: cultured adipogenic precursors and WT mouse FAPs; conditions: previously shown; cited from earlier work
[2] = system: B6A/J mice; assay: Repeat notexin-induced TA injury in batimastat-treated B6A/J mice; format: in vivo, mouse
Description: Whether this effect of batimastat to repress FAP adipogenesis can improve muscle histopathology was tested in vivo. 12Mo B6A/J mice were treated for 10 weeks with batimastat (2 mg/kg i.p. 3× weekly). […] To determine if this reduction in adipogenic replacement was due to an effect on just FAP differentiation or also on FAP proliferation, FAP accumulation was quantified by PDGFRα labeling and no effect of batimastat treatment on FAP number was found (FIG. 12). […] Thus, inhibition of adipogenesis by batimastat is not due to reduced FAP numbers or improved myofiber repair. To further confirm the ability of batimastat to prevent dysferlinopathic muscle from injury-triggered FAP adipogenesis, we employed the repeat notexin-induced TA injury approach which induces significant adipogenic replacement of the muscle (FIG. 6D and FIG. 6E). […] Given that FAP numbers are unaffected by batimastat treatment, it was examined whether these batimastat treatment causes cells to adopt a fibrogenic fate by blocking their adipogenic differentiation. However, no change in intra-muscular fibrosis was observed as a result of batimastat treatment in either the gastrocnemius or injured TA (FIG. 12). […]
Microscopy and Image Analysis. […] Perilipin-1 quantification was performed by thresholding the image to exclude non-specific staining and then calculating the area of each lipid deposit encircled by perlipin-1 (excluding those in the epi- or perimysium) using MetaMorph software (Molecular Devices). The total area encircled by perilipin-1 was calculated for all lipid deposits across the muscle and expressed relative to the total cross-sectional area. PDGFRα and AnxA2 positive area was calculated using CellSens software (Olympus) by thresholding to remove non-specific staining and calculating the total positive area (again, excluding any epi- or perimysial staining) relative to the entire muscle cross-section. […]

## CNC(=O)[C@H](Cc1ccccc1)NC(=O)[C@H](CC(C)C)[C@H](CSc1cccs1)C(=O)NO [batimastat]
[1]
  adipogenesis of cultured adipogenic precursors and WT mouse FAPs: restrict adipogenesis
[2]; 3 notexin injuries during 10 weeks of batimastat 2 mg/kg i.p. 3× weekly, vs untreated mice
  reduction in perilipin-1 positive area in TA following repeat notexin injury: ~40%
[2]; 3 repeat notexin injuries, batimastat 2 mg/kg i.p. 3× weekly for 10 weeks
  intra-muscular fibrosis in injured TA (Masson's trichrome): no change
[2]; TA, batimastat 2 mg/kg i.p. 3× weekly for 10 weeks
  FAP accumulation caused by repeat notexin injuries (PDGFRα): did not reduce

From patent publication US12594278B2, “Method for treatment of muscular dystrophy” (CHILDREN'S NATIONAL MEDICAL CENTER, priority 2019, dated 2026)
